The values that follow come from US12590106B2, “Spiromacrocyclic orexin 2 receptor agonists” (H. Lundbeck A/S, priority 2023, dated 2026).

The assay addresses T1, human Ox2R (Homo sapiens, UniProt O43614).
T1 construct: The gene encoding hOx2R was subcloned into the expression plasmid pcDNA5/FRT/TO; expressed in transfected cells; host or cells: CHO Flp-In cells (pcDNA5/FRT/TO with pOG44 Flp recombinase vector, hygromycin B selection)
T1 sequence (O43614 1-444): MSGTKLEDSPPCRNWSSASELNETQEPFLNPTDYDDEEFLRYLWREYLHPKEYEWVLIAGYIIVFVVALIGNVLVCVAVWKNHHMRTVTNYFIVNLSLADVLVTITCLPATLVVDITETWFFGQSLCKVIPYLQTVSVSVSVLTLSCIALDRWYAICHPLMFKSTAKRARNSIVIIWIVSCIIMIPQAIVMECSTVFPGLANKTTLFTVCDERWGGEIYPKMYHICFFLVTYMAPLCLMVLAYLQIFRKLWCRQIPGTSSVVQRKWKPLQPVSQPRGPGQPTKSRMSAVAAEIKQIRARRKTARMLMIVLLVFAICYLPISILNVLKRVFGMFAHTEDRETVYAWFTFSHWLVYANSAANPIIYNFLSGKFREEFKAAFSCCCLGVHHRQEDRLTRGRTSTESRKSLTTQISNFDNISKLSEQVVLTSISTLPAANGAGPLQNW
Put plainly: Measurement of OX2R agonist activity (cell-based calcium release assay). As to conditions: hOx2R-CHO Flp-In cells, n≥2 tests; for EC50: intracellular calcium, read-out: EC50; for Emax / Emax (%): normalized to assay buffer (0%) and 10 μM Danavorexton (100%); for Emax: read-out: Emax (%). The method, boiled down: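 CHO Flp-In cells stably expressing human Ox2R, dye-loaded 1 h at 37 °C in HBSS/20 mM HEPES pH 7.4 with 2.5 mM probenecid and 10 mM CaCl2, then stimulated with compound.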

The EC50 is the concentration that produces a half-maximal response. The Emax is the maximal effect, on the per cent scale that the assay sets.

Turning to `CS(=O)(=O)N[C@H]1CC[C@@]2(CO[C@H]3CC[C@H](CC3)c3nccc(n3)OCc3coc2n3)C1` [Example 1, N-[(1s,1′S,13S,16s)-spiro[7,11,15-trioxa-3,21,22-triazatetracyclo[14.2.2.12,6.19,12]docosa-2,4,6(22),9,12(21)-pentaene-13,3′-cyclopentane]-1′-yl]methanesulfonamide], the EC50 was 9.7 nM and the maximal effect (Emax) came to 98%.

Turning to `CCS(=O)(=O)N[C@H]1CC[C@@]2(Cc3ccc(F)c(c3)-c3ccccc3OCc3coc2n3)C1` [Example 11, N-[(1′S,14R)-19-fluorospiro[8,12-dioxa-21-azatetracyclo[14.3.1.110,13.02,7]henicosa-1(19),2,4,6,10,13(21),16(20),17-octaene-14,3′-cyclopentane]-1′-yl]ethanesulfonamide], the EC50 is 0.68 nM and the Emax turned out to be 97%.

`CS(=O)(=O)N[C@H]1CC[C@@]2(Cc3cccc(c3)-c3cccc(n3)OCc3coc2n3)C1` [Example 47, N-[(1′S,13R)-spiro[7,11-dioxa-20,21-diazatetracyclo[13.3.1.12,6.19,12]henicosa-1(19),2,4,6(21),9,12(20),15,17-octaene-13,3′-cyclopentane]-1′-yl]methanesulfonamide]: the EC50 came out at 8.6 nM and the Emax was found to be 96%.

`CS(=O)(=O)NC1CCC2(C1)c1nc(co1)COc1c(F)cccc1-c1cc(ccc1F)C2F` (single isomer, unassigned) [Example 78, N-[(1′S,14R,15S or 15R)-6,15,19-trifluorospiro[8,12-dioxa-21-azatetracyclo[14.3.1.110,13.02,7]henicosa-1(19),2,4,6,10,13(21),16(20),17-octaene-14,3′-cyclopentane]-1′-yl]methanesulfonamide]: the EC50 was determined as 0.17 nM and the “Emax (%)” value was found to be 95%.

`Cn1cc2c(n1)OCc1coc(n1)[C@]1(CC[C@H](NS(C)(=O)=O)C1)Cc1ccc(F)c-2c1` [Example 81, N-[(1′S,13R)-18-fluoro-4-methyl-spiro[7,11-dioxa-4,5,20-triazatetracyclo[13.3.1.19,12.02,6]icosa-1(18),2,5,9,12(20),15(19),16-heptaene-13,3′-cyclopentane]-1′-yl]methanesulfonamide]: the EC50 is 0.068 nM and the Emax is 100%.

Take `CS(=O)(=O)N[C@H]1CC[C@@]2(COCCc3cccc(c3)OCc3coc2n3)C1` [Example 40, N-[(1′S,8S)-spiro[2,6,10-trioxa-18-azatricyclo[11.3.1.14,7]octadeca-1(17),4,7(18),13,15-pentaene-8,3′-cyclopentane]-1′-yl]methanesulfonamide]: the EC50 is 1700 nM and the Emax is 94%.

Regarding `CS(=O)(=O)N[C@H]1CC[C@@]2(Cc3ccc(F)c(c3)-c3ccc(F)cc3OCc3coc2n3)C1` [Example 15, N-[(1′S,14R)-5,19-difluorospiro[8,12-dioxa-21-azatetracyclo[14.3.1.110,13.02,7]henicosa-1(19),2,4,6,10,13(21),16(20),17-octaene-14,3′-cyclopentane]-1′-yl]methanesulfonamide], the EC50 is 8.1 nM and the Emax was determined as 98%.

As for `CS(=O)(=O)N[C@H]1C[C@@]2(Cc3ccc(F)c(c3)-c3cccc(F)c3OCc3coc2n3)C1` [Example 98, trans-N-(6,19-difluorospiro[8,12-dioxa-21-azatetracyclo[14.3.1.110,13.02,7]henicosa-1(20),2,4,6,10,13(21),16,18-octaene-14,3′-cyclobutane]-1′-yl)methanesulfonamide], the half-maximal effective concentration (EC50) came to 0.87 nM and the Emax was found to be 99%.

Consider `CS(=O)(=O)N[C@H]1CC[C@@]2(Cc3cc(ccc3F)-c3ccc(F)c(F)c3OCc3coc2n3)C1` [Example 28, N-[(1′S,14R)-5,6,17-trifluorospiro[8,12-dioxa-21-azatetracyclo[14.3.1.110,13.02,7]henicosa-1(19),2,4,6,10,13(21),16(20),17-octaene-14,3′-cyclopentane]-1′-yl]methanesulfonamide], for which the EC50 is 6 nM and the Emax turned out to be 99%.

With `[2H]C1([2H])Oc2c(F)cccc2-c2cc(ccc2F)C[C@@]2(CC[C@H](NS(C)(=O)=O)C2)c2nc1co2` [Example 6, N-[(1′S,14R)-9,9-dideuterio-6,19-difluoro-spiro[8,12-dioxa-21-azatetracyclo[14.3.1.110,13.02,7]henicosa-1(19),2,4,6,10,13(21),16(20),17-octaene-14,3′-cyclopentane]-1′-yl]methanesulfonamide], the EC50 came out at 0.11 nM and the Emax was found to be 100%.

For the molecule `O=S(=O)(N[C@H]1CC[C@@]2(Cc3cccc(c3)-c3cccc(F)c3OCc3coc2n3)C1)C1CCOC1` (stereo partly drawn) [Example 79, N-[(1′S,14R)-6-fluorospiro[8,12-dioxa-21-azatetracyclo[14.3.1.110,13.02,7]henicosa-1(19),2,4,6,10,13(21),16(20),17-octaene-14,3′-cyclopentane]-1′-yl]tetrahydrofuran-3-sulfonamide], the EC50 amounted to 20 nM and the Emax turned out to be 100%.

For the molecule `O=S(=O)(N[C@H]1CC[C@@]2(Cc3ccc(F)c(c3)-c3cccc(F)c3OCc3coc2n3)C1)C(F)(F)F` [Example 114, N-[(1′S,14R)-6,19-difluorospiro[8,12-dioxa-21-azatetracyclo[14.3.1.110,13.02,7]henicosa-1(19),2(7),3,5,10,13(21),16(20),17-octaene-14,3′-cyclopentane]-1′-yl]-1,1,1-trifluoro-methanesulfonamide], the EC50 came out at 0.19 nM and the maximal response (Emax) stood at 110%.

On to `CS(=O)(=O)N[C@H]1CC[C@@]2(Cc3cccc(c3)-c3cccc(c3)OCc3ccnc2n3)C1` [Example 86, N-[(1′S,14R)-spiro[7-oxa-12,21-diazatetracyclo[14.3.1.12,6.19,13]docosa-1(20),2,4,6(22),9,11,13(21),16,18-nonaene-14,3′-cyclopentane]-1′-yl]methanesulfonamide], for which the EC50 worked out at 90 nM and the Emax was 100%.

For the molecule `CS(=O)(=O)N[C@H]1CC[C@@]2(Cc3cc(ccn3)-c3ccccc3OCc3coc2n3)C1` [Example 49, N-[(1′S,14S)-spiro[8,12-dioxa-17,21-diazatetracyclo[14.3.1.110,13.02,7]henicosa-1(20),2,4,6,10,13(21),16,18-octaene-14,3′-cyclopentane]-1′-yl]methanesulfonamide], the concentration for a half-maximal effect (EC50) turned out to be 2000 nM and the maximal response (Emax) stood at 94%.

For the molecule `CS(=O)(=O)N[C@H]1CC[C@]2(CC1)Cc1ccc(F)c(c1)-c1cccc(F)c1OCc1coc2n1` [Example 97, trans-N-(6,19-difluorospiro[8,12-dioxa-21-azatetracyclo[14.3.1.110,13.02,7]henicosa-1(19),2,4,6,10,13(21),16(20),17-octaene-14,4′-cyclohexane]-1′-yl)methanesulfonamide], the EC50 was 0.39 nM and the Emax came to 96%.

For `Cc1cccc2c1OCc1coc(n1)[C@]1(CC[C@H](NS(C)(=O)=O)C1)Cc1ccc(F)c-2c1` [Example 37, N-[(1′S,14R)-19-fluoro-6-methyl-spiro[8,12-dioxa-21-azatetracyclo[14.3.1.110,13.02,7]henicosa-1(19),2,4,6,10,13(21),16(20),17-octaene-14,3′-cyclopentane]-1′-yl]methanesulfonamide], the EC50 was determined as 1.1 nM and the Emax came to 96%.

With “N-[(1′S,4′S,15R)-6,20-difluoro-4′-methyl-spiro[8-oxa-13,22-diazatetracyclo[15.3.1.110,14.02,7]docosa-1(20),2,4,6,10,12,14(22),17(21),18-nonaene-15,3′-cyclopentane]-1′-yl]methanesulfonamide or N-[(1′R,4′R,15S)-6,20-difluoro-4′-methyl-spiro[8-oxa-13,22-diazatetracyclo[15.3.1.110,14.02,7]docosa-1(20),2,4,6,10,12,14(22),17(21),18-nonaene-15,3′-cyclopentane]-1′-yl]methanesulfonamide [Example 93]”, the concentration giving a half-maximal response (EC50) was 3.1 nM and the “Emax (%)” value turned out to be 94%.

For `CNS(=O)(=O)N[C@H]1CC[C@@]2(Cc3ccc(F)c(c3)-c3ccccc3OCc3coc2n3)C1` [Example 12, (1′S,14R)-19-fluoro-N-(methylsulfamoyl)spiro[8,12-dioxa-21-azatetracyclo[14.3.1.110,13.02,7]henicosa-1(19),2,4,6,10,13(21),16(20),17-octaene-14,3′-cyclopentane]-1′-amine], the half-maximal effective concentration (EC50) was 0.19 nM and the Emax turned out to be 100%.

For `CS(=O)(=O)N[C@H]1CC[C@@]2(Cc3cc(c(F)cn3)-c3cccc(F)c3OCc3coc2n3)C1` [Example 106, N-[(1′S,14S)-6,19-difluorospiro[8,12-dioxa-17,21-diazatetracyclo[14.3.1.110,13.02,7]henicosa-1(20),2,4,6,10,13(21),16,18-octaene-14,3′-cyclopentane]-1′-yl]methanesulfonamide], the EC50 was 26 nM and the Emax came to 98%.
